Data published in BigSolDB 2.1.

COc1ccccc1N1CCN(CC(O)COc2cccc3ccccc23)CC1 (centres undefined)
solubility (mole fraction)
Conditions | 273.15 K | 278.15 K | 283.15 K | 288.15 K | 293.15 K | 298.15 K | 303.15 K | 308.15 K | 313.15 K
in acetone | 0.00318 | 0.00399 | 0.00481 | 0.00579 | 0.00676 | 0.00782 | 0.00894 | 0.0102 | 0.0118
in acetonitrile | 0.00113 | 0.00132 | 0.00156 | 0.00182 | 0.00208 | 0.00244 | 0.0028 | 0.00321 | 0.00372
in ethanol | 0.000817 | 0.000955 | 0.00112 | 0.00131 | 0.00152 | 0.00175 | 0.00198 | 0.00229 | 0.00266
in ethyl acetate | 0.00438 | 0.00503 | 0.00585 | 0.0067 | 0.00768 | 0.0087 | 0.00998 | 0.0112 | 0.0126
in methanol | 0.00056 | 0.000636 | 0.000719 | 0.000822 | 0.000922 | 0.00104 | 0.00118 | 0.00133 | 0.0015
in toluene | 0.00534 | 0.00633 | 0.00727 | 0.00847 | 0.00978 | 0.0113 | 0.0129 | 0.0149 | 0.017
